Laboratory results: publication PMC9652372, “Glycolytic flux control by drugging phosphoglycolate phosphatase” (Nature Communications, 2022)
In brackets after ≈: the same amount, converted by molar mass. Several values for one entry are separate records, joined by “and”; a condition that tells them apart may be missing. Equal entries are not always repeated.

Columns and labels:
murine PDXP/PGP hybrid = target: T1, murine PDXP/PGP hybrid (Mus musculus, UniProt P60487+Q8CHP8); experiment: PG dephosphorylation by PDXP/PGP hybrid protein; type: biochemical
T1 construct: consisting of the PGP cap domain (amino acids 114–233) fused to the PDXP core domain; His6 (N, cleaved yes); made in house; host or cells: Escherichia coli BL21 (DE3), pETM11
T1 sequence (P60487 1-100): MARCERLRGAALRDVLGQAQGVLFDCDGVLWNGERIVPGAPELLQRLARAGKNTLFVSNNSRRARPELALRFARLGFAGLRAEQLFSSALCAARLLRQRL
T1 sequence (Q8CHP8 114-233): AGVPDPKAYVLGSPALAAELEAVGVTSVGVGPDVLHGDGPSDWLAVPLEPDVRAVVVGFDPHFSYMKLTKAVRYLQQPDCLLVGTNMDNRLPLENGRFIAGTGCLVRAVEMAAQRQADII
T1 sequence (P60487 208-292): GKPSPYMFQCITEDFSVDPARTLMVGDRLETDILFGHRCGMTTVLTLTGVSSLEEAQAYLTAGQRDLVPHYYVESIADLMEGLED
Method: After centrifugation, cells were resuspended in TNM-2 (100 mM triethanolamine, 500 mM NaCl, 20 mM imidazole, 5 mM MgCl2; pH 7.4). Cleared supernatants were loaded on a HisTrap HP nickel sepharose column in TNM-3 (50 mM triethanolamine, 500 mM NaCl, 20 mM imidazole, 5 mM MgCl2; pH 7.4), and His6-tagged proteins were eluted using a linear gradient of up to 50% TNM-4 (50 mM triethanolamine; 250 mM NaCl; 500 mM imidazole; 5 mM MgCl2; pH 7.4). Peak fractions were pooled, the His6-tag was cleaved, and untagged PDXP or PDXP/PGP was isolated, concentrated and further purified by size exclusion chromatography in TNM-5 (50 mM triethanolamine; 250 mM NaCl; 5 mM MgCl2; pH 7.4). […] Data were analyzed with GraphPad Prism 7.04.

physchem = details: organic solvent or mixture
murine PGP [1] = target: T2, murine PGP (Mus musculus, UniProt Q8CHP8); experiment: biochemical
T2 sequence (Q8CHP8 1-321): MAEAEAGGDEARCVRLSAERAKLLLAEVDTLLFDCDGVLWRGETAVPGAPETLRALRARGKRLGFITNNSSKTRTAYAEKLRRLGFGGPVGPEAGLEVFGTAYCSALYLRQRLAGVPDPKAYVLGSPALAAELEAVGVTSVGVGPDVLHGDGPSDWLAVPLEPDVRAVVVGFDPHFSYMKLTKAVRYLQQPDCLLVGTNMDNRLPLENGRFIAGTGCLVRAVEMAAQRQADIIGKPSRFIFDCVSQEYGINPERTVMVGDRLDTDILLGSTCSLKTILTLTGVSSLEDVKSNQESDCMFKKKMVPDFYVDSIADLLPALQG

murine PGP [2] = target: T2, murine PGP; experiment: IC50 determination, murine PGP, pNPP dephosphorylation
PGP^WT = target: T3, PGP^WT (Mus musculus, UniProt Q8CHP8); experiment: Differential scanning fluorimetry (Thermofluor); type: binding
T3 construct: His6 (N, cleaved yes); made in house; host or cells: Escherichia coli BL21 (DE3), pETM11, co-expressed with groES-groEL-tig
T3 sequence (Q8CHP8 1-321): T2 sequence (Q8CHP8 1-321)

PGP = target: T4, PGP (Mus musculus, UniProt Q8CHP8); experiment: Steady state kinetics of PG dephosphorylation in presence of CP1-3
T4 sequence (Q8CHP8 1-321): T2 sequence (Q8CHP8 1-321)

murine PDXP = target: T5, murine PDXP (Mus musculus, UniProt P60487); experiment: PDXP activity towards pyridoxal 5'-phosphate (PLP); details: phosphatase PDXP; species M.m.; substrate PLP; n.s. = no significant inhibition detectable
T5 sequence (P60487 1-292): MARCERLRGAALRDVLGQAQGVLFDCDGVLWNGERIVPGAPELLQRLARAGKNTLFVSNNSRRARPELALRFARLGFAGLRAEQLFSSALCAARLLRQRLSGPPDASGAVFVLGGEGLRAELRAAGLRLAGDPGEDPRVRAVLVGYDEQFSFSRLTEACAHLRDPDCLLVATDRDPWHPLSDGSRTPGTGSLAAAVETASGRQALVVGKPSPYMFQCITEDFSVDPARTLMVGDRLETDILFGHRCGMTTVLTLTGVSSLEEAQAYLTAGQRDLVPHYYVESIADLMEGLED

[3] = PG dephosphorylation, increasing CP concentrations

Compound: O=C(O)c1cc(Nc2ccccc2C(=O)O)nc(Nc2ccccc2C(=O)O)n1 [CP3]
- remaining activity at 16 µM (murine PDXP/PGP hybrid; activity, control = 100, CP log[M] -4.79588): 1.8%
- remaining activity at 4 µM (murine PDXP/PGP hybrid; activity, control = 100, CP log[M] -5.39794): 13.3%
- remaining activity at 1 µM (murine PDXP/PGP hybrid; activity, control = 100, CP log[M] -6): 41.6%
- remaining activity at 0.5 µM (murine PDXP/PGP hybrid; activity, control = 100, CP log[M] -6.30103): 58.4%
- remaining activity at […] (murine PDXP/PGP hybrid; activity, control = 100, CP log[M] -6.60206): 73.5%
- remaining activity at 0.125 µM (murine PDXP/PGP hybrid; activity, control = 100, CP log[M] -6.90309): 84.1%
- remaining activity at 0.0625 µM (murine PDXP/PGP hybrid; activity, control = 100, CP log[M] -7.20412): 89.4%
- remaining activity at 0.015625 µM (murine PDXP/PGP hybrid; activity, control = 100, CP log[M] -7.80618): 103%
- IC50 (murine PDXP/PGP hybrid; phosphatase PDXP/PGP, species M.m., substrate PG): 0.97 ± 0.02 µM
- solubility (physchem): 50 mM (≈ 19.7 mg/mL)
- IC50 (murine PGP [1]): 0.81 µM and 1 µM
- IC50 (murine PGP [2]): 13.5 ± 2.51 µM
- remaining activity at 10 µM (murine PGP [2]; read-out: M.m PGP on pNPP, activity, control = 100.00, CP log[M] -5): 45.5%
- remaining activity at 5 µM (murine PGP [2]; read-out: M.m PGP on pNPP, activity, control = 100.00, CP log[M] -5.30103): 61.5%
- remaining activity at […] (murine PGP [2]; read-out: M.m PGP on pNPP, activity, control = 100.00, CP log[M] -5.60206): 74.3%
- remaining activity at 80 µM (murine PGP [2]; read-out: M.m PGP on pNPP, activity, control = 100.00, Log CP3 [M] -4.09691): 12.6%
- remaining activity at 40 µM (murine PGP [2]; read-out: M.m PGP on pNPP, activity, control = 100.00, Log CP3 [M] -4.39794): 20.3%
- remaining activity at 20 µM (murine PGP [2]; read-out: M.m PGP on pNPP, activity, control = 100.00, Log CP3 [M] -4.69897): 33.2%
- remaining activity at 1.25 µM (murine PGP [2]; read-out: M.m PGP on pNPP, activity, control = 100.00, Log CP3 [M] -5.90309): 85.2%
- remaining activity at 0.625 µM (murine PGP [2]; read-out: M.m PGP on pNPP, activity, control = 100.00, Log CP3 [M] -6.20412): 88.3%
- remaining activity at 0.3125 µM (murine PGP [2]; read-out: M.m PGP on pNPP, activity, control = 100.00, Log CP3 [M] -6.50515): 93.8%
- remaining activity at 0.15625 µM (murine PGP [2]; read-out: M.m PGP on pNPP, activity, control = 100.00, Log CP3 [M] -6.80618): 98.4%
- remaining activity at 0.078125 µM (murine PGP [2]; read-out: M.m PGP on pNPP, activity, control = 100.00, Log CP3 [M] -7.10721): 101%
- TM (PGP^WT; Inhibitor 0.244141 µM): 66.6 °C
- TM (PGP^WT; Inhibitor 0.488281 µM): 66.7 °C
- TM (PGP^WT; Inhibitor 0.976562 µM): 67.0 °C
- TM (PGP^WT; Inhibitor 1.95312 µM): 67.3 °C
- TM (PGP^WT; Inhibitor 3.90625 µM): 68.1 °C
- TM (PGP^WT; Inhibitor 7.8125 µM): 69.0 °C
- TM (PGP^WT; Inhibitor 15.625 µM): 70.4 °C
- TM (PGP^WT; Inhibitor 31.25 µM): 71.2 °C
- TM (PGP^WT; Inhibitor 62.5 µM): 72.1 °C
- TM (PGP^WT; Inhibitor 125 µM): 72.8 °C
- TM (PGP^WT; Inhibitor 250 µM): 73.4 °C
- mode of PGP inhibition (PGP): competitive inhibitors
- PGP activity (PGP; 1 µM CP3, PG 50 µM): 2.463 µmol Pi/min/mg and 2.403 µmol Pi/min/mg and 1.502 µmol Pi/min/mg
- PGP activity (PGP; 1 µM CP3, PG 100 µM): 5.226 µmol Pi/min/mg and 4.205 µmol Pi/min/mg
- PGP activity (PGP; 1 µM CP3, PG 200 µM): 10.3316 µmol Pi/min/mg and 9.671 µmol Pi/min/mg and 8.89 µmol Pi/min/mg
- PGP activity (PGP; 1 µM CP3, PG 300 µM): 14.7802 µmol Pi/min/mg and 14.2395 µmol Pi/min/mg and 12.9778 µmol Pi/min/mg
- PGP activity (PGP; 1 µM CP3, PG 400 µM): 17.1234 µmol Pi/min/mg and 17.6642 µmol Pi/min/mg and 16.5827 µmol Pi/min/mg
- PGP activity (PGP; 1 µM CP3, PG 500 µM): 20.9086 µmol Pi/min/mg and 20.1877 µmol Pi/min/mg and 22.1704 µmol Pi/min/mg
- PGP activity (PGP; 1 µM CP3, PG 600 µM): 22.1704 µmol Pi/min/mg and 21.0889 µmol Pi/min/mg and 23.7926 µmol Pi/min/mg
- PGP activity (PGP; 1 µM CP3, PG 700 µM): 23.4321 µmol Pi/min/mg and 22.7111 µmol Pi/min/mg and 25.4148 µmol Pi/min/mg
- PGP activity (PGP; 1 µM CP3, PG 800 µM): 25.7753 µmol Pi/min/mg and 22.1704 µmol Pi/min/mg and 24.3333 µmol Pi/min/mg
- PGP activity (PGP; 2 µM CP3, PG 100 µM): 4.445 µmol Pi/min/mg and 3.364 µmol Pi/min/mg and 4.265 µmol Pi/min/mg
- PGP activity (PGP; 2 µM CP3, PG 200 µM): 8.469 µmol Pi/min/mg and 7.448 µmol Pi/min/mg
- PGP activity (PGP; 2 µM CP3, PG 300 µM): 12.437 µmol Pi/min/mg and 10.4543 µmol Pi/min/mg and 11.8963 µmol Pi/min/mg
- PGP activity (PGP; 2 µM CP3, PG 400 µM): 15.6815 µmol Pi/min/mg and 12.7975 µmol Pi/min/mg and 14.7802 µmol Pi/min/mg
- PGP activity (PGP; 2 µM CP3, PG 500 µM): 18.7457 µmol Pi/min/mg and 18.5654 µmol Pi/min/mg and 18.3852 µmol Pi/min/mg
- PGP activity (PGP; 2 µM CP3, PG 600 µM): 19.6469 µmol Pi/min/mg and 20.7284 µmol Pi/min/mg
- PGP activity (PGP; 2 µM CP3, PG 700 µM): 20.9086 µmol Pi/min/mg and 21.8099 µmol Pi/min/mg and 21.0889 µmol Pi/min/mg
- PGP activity (PGP; 2 µM CP3, PG 800 µM): 21.4494 µmol Pi/min/mg and 22.3506 µmol Pi/min/mg and 22.7111 µmol Pi/min/mg
- PGP activity (PGP; 4 µM CP3, PG 100 µM): 3.4839 µmol Pi/min/mg and 2.463 µmol Pi/min/mg and 3.424 µmol Pi/min/mg
- PGP activity (PGP; 4 µM CP3, PG 200 µM): 6.547 µmol Pi/min/mg and 5.706 µmol Pi/min/mg and 6.728 µmol Pi/min/mg
- PGP activity (PGP; 4 µM CP3, PG 300 µM): 9.553 µmol Pi/min/mg and 7.39 µmol Pi/min/mg and 12.7975 µmol Pi/min/mg
- PGP activity (PGP; 4 µM CP3, PG 400 µM): 12.437 µmol Pi/min/mg and 10.4543 µmol Pi/min/mg and 15.321 µmol Pi/min/mg
- PGP activity (PGP; 4 µM CP3, PG 500 µM): 15.6815 µmol Pi/min/mg and 15.5012 µmol Pi/min/mg and 17.484 µmol Pi/min/mg
- PGP activity (PGP; 4 µM CP3, PG 600 µM): 16.763 µmol Pi/min/mg and 19.1062 µmol Pi/min/mg
- PGP activity (PGP; 4 µM CP3, PG 700 µM): 16.763 µmol Pi/min/mg and 18.0247 µmol Pi/min/mg and 21.8099 µmol Pi/min/mg
- PGP activity (PGP; 4 µM CP3, PG 800 µM): 17.3037 µmol Pi/min/mg and 18.2049 µmol Pi/min/mg and 22.5309 µmol Pi/min/mg
- vmax (PGP; CP 1.0 µM): 50.8 ± 4.1 µmol/min/mg
- vmax (PGP; CP 2.0 µM): 54.7 ± 4.9 µmol/min/mg
- vmax (PGP; CP 4.0 µM): 54.3 ± 11.9 µmol/min/mg
- effect on vmax (reduction) (PGP; [3]): without affecting vmax
- increase of KM (PGP; [3]): ~ 3 fold
- IC50 (murine PDXP): n.s.
